In ChEMBL document CHEMBL1772949, “Replacement of the hydrophobic part of 9-cis-retinoic acid with cyclic terpenoid moiety results in RXR-selective agonistic activity” (Bioorg Med Chem, 2011) one finds Ratio data, which are given here for 16 compounds.

For test [1], the target named is T1, Cellular retinoic acid-binding protein 2 (Rattus norvegicus) (UniProt P51673).
T1 sequence (whole entry): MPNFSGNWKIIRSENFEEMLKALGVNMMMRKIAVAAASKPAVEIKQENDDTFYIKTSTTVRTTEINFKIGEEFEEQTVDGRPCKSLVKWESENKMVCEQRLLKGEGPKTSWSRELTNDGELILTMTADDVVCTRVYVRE
The experiment in a line: Agonist activity at rat CRABP2 expressed in human MG63 cells co-transfected with RXRE-SV40-Luc assessed as transcriptional efficacy at 10^-6 M after 2 days by luciferase reporter gene assay realtive to 9-cis-retinoic acid. The format is functional, cell-based. Particulars: MG-63.

For test [2], the target named is T2, Retinoic acid receptor beta (Homo sapiens) (UniProt P10826).
T2 sequence (whole entry): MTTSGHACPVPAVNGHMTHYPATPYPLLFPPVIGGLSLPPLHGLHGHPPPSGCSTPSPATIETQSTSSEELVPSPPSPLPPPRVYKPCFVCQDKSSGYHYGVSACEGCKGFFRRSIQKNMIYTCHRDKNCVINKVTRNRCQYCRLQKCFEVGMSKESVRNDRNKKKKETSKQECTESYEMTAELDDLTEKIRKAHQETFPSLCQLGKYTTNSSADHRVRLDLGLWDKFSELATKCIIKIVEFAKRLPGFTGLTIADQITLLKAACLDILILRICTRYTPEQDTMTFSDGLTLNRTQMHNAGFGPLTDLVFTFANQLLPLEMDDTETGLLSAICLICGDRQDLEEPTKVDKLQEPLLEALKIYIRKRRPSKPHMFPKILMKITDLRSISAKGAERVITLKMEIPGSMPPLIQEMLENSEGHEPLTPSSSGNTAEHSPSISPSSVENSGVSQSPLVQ
The experiment in a line: Agonist activity at human RARbeta expressed in human MG63 cells co-transfected with RARE3-SV40-Luc assessed as transcriptional efficacy at 10^-6 M after 2 days by luciferase reporter gene assay realtive to 9-cis-retinoic acid. The format is functional, cell-based. The conditions noted are these: MG-63. A general note: A reporter such as luciferase makes a cellular process visible.

Regarding `CC(=C/C=C/C(C)=C/C(=O)O)/C=C/C1=C[C@]2(C(C)C)C[C@@H]2[C@H]1C`, the Ratio in test [1] is 2.52; in test [2], 1.03.

`CC(=C/C=C/C(C)=C/C(=O)O)/C=C/C1=C[C@@H](C)CC[C@@H]1C(C)C`: the results for the Ratio in test [1] and in test [2] were 1.37 and 0.38, respectively.

Consider `CC(C)=C1CC[C@@H](C)C=C1/C=C/C(C)=C\C=C\C(C)=C\C(=O)O`, for which the Ratio in test [1] worked out at 1.5; in test [2], 0.5.

With `CC(=C/C=C/C(C)=C/C(=O)O)/C=C/C1=CC2CC[C@]1(C)C2(C)C` (single isomer, unassigned), the Ratio amounted to 0.66 in test [1] and 1.99 in test [2].

Regarding `CC(=C/C=C/C(C)=C/C(=O)O)/C=C/C1=C[C@H](C)CC[C@H]1C(C)C`, the Ratio in test [1] worked out at 1.12; in test [2], 0.25.

For `CC(=C/C=C/C(C)=C/C(=O)O)/C=C/C1=C[C@H]2C[C@@H]([C@@H]1C)C2(C)C`, the values for the Ratio in test [1] and in test [2] were 0.52 and 1.48, respectively.

For the compound `C/C(=C/C=C/C(C)=C/C(=O)O)C1=C[C@H](C)CC[C@H]1C(C)C`, the Ratio in test [1] was found to be 0.37; in test [2], 0.14.

On to `C=C(C)[C@H]1CC[C@H](C)C=C1/C=C/C(C)=C\C=C\C(C)=C\C(=O)O`, for which the Ratio in test [1] was found to be 1.76; in test [2] it was 1.33.

Turning to `C=C(C)[C@@H]1CC[C@@H](C)C=C1/C=C/C(C)=C\C=C\C(C)=C\C(=O)O`, the values for the Ratio in test [1] and in test [2] were 1.07 and 0.35, respectively.

As for `CC(=C/C=C/C(C)=C/C(=O)O)/C=C/C1=C[C@@H]2C[C@H]([C@H]1C)C2(C)C`, the Ratio in test [1] came out at 1.3; in test [2] it was 0.89.

On to `CC(=C/C=C/C(C)=C/C(=O)O)/C=C/C1=C[C@@H]2CC[C@@]1(C)C2(C)C`, for which the Ratio was 2.34 in test [1] and 1.36 in test [2].

Consider `CC(=C/C=C/C(C)=C/C(=O)O)/C=C/C1=CC[C@H]2C[C@@H]1C2(C)C`, for which the Ratio was 2.42 in test [1] and 1.92 in test [2].

As to `C/C(=C/C=C/C(C)=C/C(=O)O)C1=CC(C)(C)[C@@]23CC[C@@H](C2)C(C)(C)C3=C1`, the values for the Ratio in test [1] and in test [2] were 0.71 and 0.98, respectively.

As to `C=C(C)[C@@H]1CCC2=CC(\C(C)=C/C=C/C(C)=C/C(=O)O)=CC[C@]2(C)[C@H]1C`, the Ratio amounted to 0.23 in test [1] and 0.1 in test [2].

With `CC(C)=C1CC[C@H](C)C=C1/C=C/C(C)=C\C=C\C(C)=C\C(=O)O`, the Ratio came to 2.06 in test [1] and 0.32 in test [2].

Regarding `C/C(=C/C=C/C(C)=C/C(=O)O)C1=C[C@H]2CC[C@]1(C)C2(C)C`, the Ratio in test [1] is 0.18; in test [2], 0.04.
